This note sets out measurements from ChEMBL document CHEMBL2176988 (J Med Chem, 2012).

Data set [1] concerns the target T1, Neuronal acetylcholine receptor; alpha3/beta4 (Homo sapiens, UniProt P30926+P32297). The data set can be described thus: Agonist activity at human alpha3beta4 nAChR expressed in CHO cells assessed as calcium flux by calcium4-based FLIPR assay. The data set is classed as functional, cell-based. On the technique in general: Calcium flux is commonly read through the fluorescence of an indicator in the cells.

The target in data set [2] is T1, Neuronal acetylcholine receptor; alpha3/beta4. As to the kind of experiment: Displacement of [3H]epibatidine from human alpha3beta4 nAChR expressed in CHO cells after 2 hrs by liquid scintillation counting. The data set is classed as cell-based. In general terms: Loss of bound radioactivity is the signal in a displacement assay; it reports binding, not function.

Data set [3] has the same target. As to the kind of experiment: Agonist activity at human alpha3beta4 nAChR expressed in CHO cells assessed as calcium flux by calcium4-based FLIPR assay relative to nicotine. The format is functional, cell-based.
Data set [4] addresses Acetylcholine receptor; alpha1/beta1/delta/gamma (Homo sapiens) (UniProt P02708+P07510+P11230+Q07001). As to the kind of experiment: Agonist activity at alpha1beta1gammadelta nAChR. The format is functional.
Data set [5] concerns the target T2, 5-hydroxytryptamine receptor 3A (Homo sapiens) (UniProt P46098).
T2 sequence (whole entry): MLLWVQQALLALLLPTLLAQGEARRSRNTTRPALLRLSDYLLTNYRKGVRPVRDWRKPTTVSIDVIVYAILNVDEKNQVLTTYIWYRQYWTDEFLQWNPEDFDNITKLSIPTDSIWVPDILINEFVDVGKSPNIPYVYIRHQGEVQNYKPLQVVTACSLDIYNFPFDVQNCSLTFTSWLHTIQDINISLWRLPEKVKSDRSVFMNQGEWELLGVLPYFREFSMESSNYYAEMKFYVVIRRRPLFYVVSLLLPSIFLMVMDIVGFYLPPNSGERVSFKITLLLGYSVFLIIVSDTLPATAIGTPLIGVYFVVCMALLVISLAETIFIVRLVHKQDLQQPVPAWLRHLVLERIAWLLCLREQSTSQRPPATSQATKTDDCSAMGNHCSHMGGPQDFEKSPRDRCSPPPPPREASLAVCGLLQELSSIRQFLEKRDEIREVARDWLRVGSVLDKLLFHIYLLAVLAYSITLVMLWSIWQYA
The data set can be described thus: Inhibition of 5HT3 receptor at 10 uM.

The target of data set [6] is T3, Neuronal acetylcholine receptor; alpha4/beta2 (Homo sapiens, UniProt P17787+P43681). As to the kind of experiment: Partial agonist activity at alpha4beta2 nAChR in human SH-EP1 cells assessed as calcium flux by calcium4-based FLIPR assay. The data set is classed as functional, cell-based.
Data set [7] concerns the target T3, Neuronal acetylcholine receptor; alpha4/beta2. As to the kind of experiment: Partial agonist activity at alpha4beta2 nAChR in human SH-EP1 cells assessed as calcium flux by calcium4-based FLIPR assay relative to nicotine. The format is functional, cell-based.
A short description of data set [8]: Agonist activity at ganglion nAChR. The format is functional.
The nature of data set [9]: Inhibition of adrenergic alpha2 receptor at 10 uM.
For data set [10], the target named is T3, Neuronal acetylcholine receptor; alpha4/beta2. As to the kind of experiment: Displacement of [3H]nicotine from alpha4beta2 nAChR in human SH-EP1 cells after 2 hrs by liquid scintillation assay. The format is cell-based.
In data set [11] the target is Neuronal acetylcholine receptor subunit alpha-7 (Homo sapiens, UniProt P36544). The data set can be described thus: Displacement of [3H]epibatidine from human alpha7 nAChR expressed in CHO cells after 2 hrs by liquid scintillation counting. The data set is classed as cell-based.
For data set [12], the system named is Rattus norvegicus. As to the kind of experiment: Procognitive activity in Sprague-Dawley rat assessed as increase in working memory at 0.3 to 3 mg/kg, po administered QD for 3 days 30 mins prior to testing by novel object recognition test. The data set is classed as functional, organism-based.
A further data set concerns the target hERG (KCNH2) (Homo sapiens, UniProt Q12809). As to the kind of experiment: Inhibition of human ERG at 10 uM.
In data set [13] the test system is Rattus norvegicus. As to the kind of experiment: Procognitive activity in Sprague-Dawley rat assessed as increase in working memory at 1 mg/kg, po administered QD for 3 days 30 mins prior to testing by novel object recognition test (reference value: 51%). The data set is classed as functional.
The target of data set [14] is Neuronal acetylcholine receptor; alpha4/beta2 (Rattus norvegicus, UniProt P09483+P12390). As to the kind of experiment: Displacement of [3H]epibatidine from alpha4beta2 nAChR in Sprague-Dawley rat cortex after 2 hrs by liquid scintillation counting.
In another data set the target is Cytochrome P450 2D6 (Homo sapiens, UniProt P10635). As to the kind of experiment: Inhibition of CYP2D6. The format is ADME.
The target of data set [15] is T3, Neuronal acetylcholine receptor; alpha4/beta2. The data set can be described thus: Agonist activity at alpha4beta2 nAChR in human SH-EP1 cells assessed as calcium flux by calcium4-based FLIPR assay. The format is functional, cell-based.
The target is the same in data set [16]. As to the kind of experiment: Apparent antagonist activity at alpha4beta2 nAChR in human SH-EP1 cells assessed as inhibition of nicotine-induced calcium flux by calcium4-based FLIPR assay. The data set is classed as functional, cell-based.
The target is the same in data set [17]. The data set can be described thus: Apparent antagonist activity at alpha4beta2 nAChR in human SH-EP1 cells assessed as inhibition of nicotine-induced calcium flux by calcium4-based FLIPR assay relative to control. The format is functional, cell-based.
Data set [18] has the same target. As to the kind of experiment: Agonist activity at alpha4beta2 nAChR in human SH-EP1 cells assessed as calcium flux by calcium4-based FLIPR assay relative to nicotine. The format is functional, cell-based.
Data set [19] addresses T2, 5-hydroxytryptamine receptor 3A (Homo sapiens). The data set can be described thus: Inhibition of human 5HT3 receptor at 10 uM.
Data set [20] concerns the target T4, 5-hydroxytryptamine receptor 3A (Mus musculus) (UniProt P23979).
T4 sequence (whole entry): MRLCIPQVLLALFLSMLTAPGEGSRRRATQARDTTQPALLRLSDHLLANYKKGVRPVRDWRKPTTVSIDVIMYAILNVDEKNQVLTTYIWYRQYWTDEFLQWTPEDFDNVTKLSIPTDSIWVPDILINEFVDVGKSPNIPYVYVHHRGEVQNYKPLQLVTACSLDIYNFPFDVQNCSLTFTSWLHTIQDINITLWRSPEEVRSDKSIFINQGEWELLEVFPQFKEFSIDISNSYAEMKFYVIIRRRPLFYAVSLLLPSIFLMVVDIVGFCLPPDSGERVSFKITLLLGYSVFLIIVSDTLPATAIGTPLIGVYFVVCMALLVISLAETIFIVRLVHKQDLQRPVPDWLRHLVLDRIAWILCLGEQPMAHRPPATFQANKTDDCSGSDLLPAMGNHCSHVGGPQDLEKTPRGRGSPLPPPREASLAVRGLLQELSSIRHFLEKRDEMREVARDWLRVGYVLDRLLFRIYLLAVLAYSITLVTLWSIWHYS
As to the kind of experiment: Inhibition of mouse 5HT3 receptor at 10 uM.

Data set [21] deals with Rattus norvegicus. The data set can be described thus: Procognitive activity in Sprague-Dawley rat assessed as recognition index at 0.1 mg/kg, po administered QD for 3 days 30 mins prior to testing by novel object recognition test (reference value: 50%). The format is functional.
Data set [22] deals with Rattus norvegicus. The data set can be described thus: Procognitive activity in Sprague-Dawley rat assessed as increase in working memory at 0.1 to 0.3 mg/kg, po administered QD for 3 days 30 mins prior to testing by novel object recognition test. The format is functional, organism-based.
Data set [23] concerns the target T5, 5-hydroxytryptamine receptor 3A (Homo sapiens, UniProt P46098).
T5 sequence (P46098 whole entry): T2 sequence (whole entry)
The data set can be described thus: Inhibition of human 5HT3 receptor.

Data set [24] concerns the target T1, Neuronal acetylcholine receptor; alpha3/beta4. The data set can be described thus: Displacement of [3H]epibatidine from alpha3beta4 nAChR in human SH-SY5Y cells after 2 hrs by liquid scintillation counting. The data set is classed as cell-based.

SMILES strings stand for the structures. Activity calls are given as the source filed them. No cut-off for these calls is given here. Some results are limits rather than exact numbers.

Sequence of Neuronal acetylcholine receptor subunit alpha-7 (P36544 whole entry): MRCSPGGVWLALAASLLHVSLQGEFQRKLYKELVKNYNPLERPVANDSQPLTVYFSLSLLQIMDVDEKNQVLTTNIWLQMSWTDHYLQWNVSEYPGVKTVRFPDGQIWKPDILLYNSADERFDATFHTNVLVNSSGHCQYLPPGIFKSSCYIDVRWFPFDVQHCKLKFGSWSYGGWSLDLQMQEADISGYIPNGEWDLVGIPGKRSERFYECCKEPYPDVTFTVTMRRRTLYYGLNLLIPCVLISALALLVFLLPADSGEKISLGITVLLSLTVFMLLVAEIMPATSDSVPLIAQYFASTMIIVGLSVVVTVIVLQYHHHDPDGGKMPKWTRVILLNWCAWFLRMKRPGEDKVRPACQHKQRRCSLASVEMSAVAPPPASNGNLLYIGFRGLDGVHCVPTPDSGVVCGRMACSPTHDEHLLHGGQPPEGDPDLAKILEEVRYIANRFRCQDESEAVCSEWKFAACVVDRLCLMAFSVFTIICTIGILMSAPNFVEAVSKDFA
T1 sequence (P30926 whole entry): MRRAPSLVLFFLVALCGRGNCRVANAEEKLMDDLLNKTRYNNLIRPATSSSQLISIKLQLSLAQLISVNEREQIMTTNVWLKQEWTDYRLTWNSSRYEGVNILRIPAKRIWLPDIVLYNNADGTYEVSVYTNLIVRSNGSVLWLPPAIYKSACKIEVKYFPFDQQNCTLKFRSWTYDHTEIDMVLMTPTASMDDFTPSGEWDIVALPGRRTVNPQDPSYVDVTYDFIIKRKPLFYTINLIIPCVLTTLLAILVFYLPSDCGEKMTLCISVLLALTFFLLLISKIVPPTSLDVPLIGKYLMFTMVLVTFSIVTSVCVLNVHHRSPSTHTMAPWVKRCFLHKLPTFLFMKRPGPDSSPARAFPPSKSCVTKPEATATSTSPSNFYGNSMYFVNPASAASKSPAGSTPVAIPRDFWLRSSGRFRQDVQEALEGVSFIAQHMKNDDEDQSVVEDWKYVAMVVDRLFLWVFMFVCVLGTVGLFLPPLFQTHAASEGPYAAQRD
T1 sequence (P32297 whole entry): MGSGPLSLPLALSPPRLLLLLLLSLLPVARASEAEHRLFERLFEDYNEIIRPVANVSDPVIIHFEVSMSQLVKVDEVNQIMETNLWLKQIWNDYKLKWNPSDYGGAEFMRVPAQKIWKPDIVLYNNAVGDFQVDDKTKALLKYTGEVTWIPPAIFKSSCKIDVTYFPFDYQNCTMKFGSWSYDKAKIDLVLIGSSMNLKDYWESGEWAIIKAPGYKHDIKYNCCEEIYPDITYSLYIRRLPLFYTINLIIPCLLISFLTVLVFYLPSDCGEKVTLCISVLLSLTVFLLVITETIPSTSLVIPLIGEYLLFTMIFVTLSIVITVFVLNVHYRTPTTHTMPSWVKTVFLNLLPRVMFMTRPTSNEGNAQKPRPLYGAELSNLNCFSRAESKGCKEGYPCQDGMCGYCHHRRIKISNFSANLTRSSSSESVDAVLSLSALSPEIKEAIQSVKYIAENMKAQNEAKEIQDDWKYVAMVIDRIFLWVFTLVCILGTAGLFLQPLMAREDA
T3 sequence (P17787 whole entry): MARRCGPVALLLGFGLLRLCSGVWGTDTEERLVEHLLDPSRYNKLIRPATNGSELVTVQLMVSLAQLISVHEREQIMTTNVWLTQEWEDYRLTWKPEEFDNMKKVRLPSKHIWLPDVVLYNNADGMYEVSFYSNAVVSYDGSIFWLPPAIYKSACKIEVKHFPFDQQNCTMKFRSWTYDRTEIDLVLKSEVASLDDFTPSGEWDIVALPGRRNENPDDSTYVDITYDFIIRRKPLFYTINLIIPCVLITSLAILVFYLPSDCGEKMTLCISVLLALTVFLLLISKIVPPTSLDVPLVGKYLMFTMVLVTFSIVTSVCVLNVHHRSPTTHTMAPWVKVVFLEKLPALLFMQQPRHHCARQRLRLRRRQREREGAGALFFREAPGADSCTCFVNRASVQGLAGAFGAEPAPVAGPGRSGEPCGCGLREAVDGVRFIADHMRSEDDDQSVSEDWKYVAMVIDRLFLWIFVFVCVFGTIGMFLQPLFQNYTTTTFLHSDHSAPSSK
T3 sequence (P43681 whole entry): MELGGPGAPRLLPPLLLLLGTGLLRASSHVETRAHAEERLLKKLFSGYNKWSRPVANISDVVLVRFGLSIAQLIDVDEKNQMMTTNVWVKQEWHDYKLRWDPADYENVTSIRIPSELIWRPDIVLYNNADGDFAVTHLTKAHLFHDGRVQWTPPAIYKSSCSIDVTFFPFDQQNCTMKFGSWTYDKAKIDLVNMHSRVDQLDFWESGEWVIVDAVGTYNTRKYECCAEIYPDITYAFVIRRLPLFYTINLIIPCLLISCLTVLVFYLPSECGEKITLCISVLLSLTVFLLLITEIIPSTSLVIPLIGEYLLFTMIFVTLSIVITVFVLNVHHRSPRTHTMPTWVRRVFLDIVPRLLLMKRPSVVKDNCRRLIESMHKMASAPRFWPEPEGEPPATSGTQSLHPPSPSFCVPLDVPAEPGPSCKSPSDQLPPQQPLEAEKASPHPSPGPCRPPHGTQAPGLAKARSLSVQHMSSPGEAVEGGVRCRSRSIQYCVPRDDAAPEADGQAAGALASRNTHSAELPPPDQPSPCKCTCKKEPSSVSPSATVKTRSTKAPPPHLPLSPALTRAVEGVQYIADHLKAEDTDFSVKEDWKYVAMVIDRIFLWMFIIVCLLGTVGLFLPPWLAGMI
Sequence of Neuronal acetylcholine receptor; alpha4/beta2 (Rattus norvegicus, UniProt P09483+P12390) (P09483 whole entry): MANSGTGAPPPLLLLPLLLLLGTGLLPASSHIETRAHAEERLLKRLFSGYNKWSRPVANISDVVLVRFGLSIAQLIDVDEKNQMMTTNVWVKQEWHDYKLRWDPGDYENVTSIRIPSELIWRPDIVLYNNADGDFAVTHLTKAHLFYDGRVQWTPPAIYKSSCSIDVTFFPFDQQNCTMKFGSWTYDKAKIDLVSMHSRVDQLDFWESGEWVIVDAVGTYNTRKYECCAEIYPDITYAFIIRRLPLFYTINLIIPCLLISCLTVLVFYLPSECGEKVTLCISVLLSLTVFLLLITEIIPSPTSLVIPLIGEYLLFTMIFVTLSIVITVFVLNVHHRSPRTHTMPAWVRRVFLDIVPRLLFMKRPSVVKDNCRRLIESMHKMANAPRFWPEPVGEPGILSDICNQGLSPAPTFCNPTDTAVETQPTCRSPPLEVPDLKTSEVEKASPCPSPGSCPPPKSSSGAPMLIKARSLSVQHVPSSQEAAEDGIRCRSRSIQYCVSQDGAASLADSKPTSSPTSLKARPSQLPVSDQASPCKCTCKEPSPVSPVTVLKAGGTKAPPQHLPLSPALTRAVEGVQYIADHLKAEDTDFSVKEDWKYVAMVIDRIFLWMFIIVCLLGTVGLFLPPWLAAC
Sequence of Neuronal acetylcholine receptor; alpha4/beta2 (Rattus norvegicus, UniProt P09483+P12390) (P12390 whole entry): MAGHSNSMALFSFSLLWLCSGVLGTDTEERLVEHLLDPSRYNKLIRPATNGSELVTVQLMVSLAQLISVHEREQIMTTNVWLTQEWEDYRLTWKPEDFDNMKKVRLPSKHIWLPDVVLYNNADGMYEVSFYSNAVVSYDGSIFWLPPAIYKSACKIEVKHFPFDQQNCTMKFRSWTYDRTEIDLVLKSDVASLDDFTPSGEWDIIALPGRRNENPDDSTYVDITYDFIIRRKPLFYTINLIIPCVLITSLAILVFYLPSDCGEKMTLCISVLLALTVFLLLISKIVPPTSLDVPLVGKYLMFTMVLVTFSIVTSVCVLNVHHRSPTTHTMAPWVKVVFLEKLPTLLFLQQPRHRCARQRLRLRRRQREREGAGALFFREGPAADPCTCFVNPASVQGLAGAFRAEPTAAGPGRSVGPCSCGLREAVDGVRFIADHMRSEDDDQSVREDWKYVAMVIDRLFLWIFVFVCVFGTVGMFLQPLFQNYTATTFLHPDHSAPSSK
Sequence of Cytochrome P450 2D6 (P10635 whole entry): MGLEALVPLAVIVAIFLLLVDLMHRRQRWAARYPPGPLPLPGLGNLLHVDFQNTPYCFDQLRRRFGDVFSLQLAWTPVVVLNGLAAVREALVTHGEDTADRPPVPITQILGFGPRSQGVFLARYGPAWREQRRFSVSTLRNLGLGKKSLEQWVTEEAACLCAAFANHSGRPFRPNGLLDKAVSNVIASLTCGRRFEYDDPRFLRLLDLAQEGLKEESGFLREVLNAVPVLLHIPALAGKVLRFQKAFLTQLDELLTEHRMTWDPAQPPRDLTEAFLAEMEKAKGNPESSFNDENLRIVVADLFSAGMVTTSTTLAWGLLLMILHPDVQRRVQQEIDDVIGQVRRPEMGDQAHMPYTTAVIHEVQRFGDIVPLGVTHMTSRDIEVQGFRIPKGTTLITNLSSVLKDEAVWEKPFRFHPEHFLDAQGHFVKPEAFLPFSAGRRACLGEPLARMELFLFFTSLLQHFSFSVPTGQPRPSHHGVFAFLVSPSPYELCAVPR

With `O=C(c1ccc(Cl)o1)N1CC2CNCC(C2)C1`, the EC50 in data set [1] worked out at 15 µM; in data set [6], 1400 nM. For the same molecule, the Ki in data set [2] is 6.4 µM; in data set [10] it was 5 nM; in data set [11], greater than 10 µM; in data set [14], 7 nM. Also, the Emax in data set [3] was determined as 61%; in [7], 47%. The result in [4] and in data set [8] was inactive. In addition, the results for the inhibition in data set [5] and in data set [9] were 40% and 35%, respectively. In the data set on Rattus norvegicus [12], the result was Active. Further, at hERG (KCNH2), the inhibition at 10 µM was less than 5%. For the same molecule, the “%max” value with Rattus norvegicus [13] was determined as 75%. At Cytochrome P450 2D6, the “inhibition (INH)” value is “Not Active”.

Turning to `O=C(c1ccc(Oc2ccccc2)cc1)N1CC2CNCC2C1` (stereo unspecified), the EC50 in data set [15] is 51 µM; in data set [1] it was 25 µM. In addition, the IC50 in data set [16] came to 7.8 µM. The inhibition constant Ki is 14 µM in [2], 19 nM in [10], 13 µM in [11] and 39 nM in data set [14]. For the same molecule, the Emax in [3] amounted to 12%; in [18], 9%. In addition, the Imax in data set [17] was found to be 94%.

For the molecule `O=C(c1ccc(Cl)o1)N1CC2CNCC2C1` (stereo unspecified) [AZD1446], the EC50 turned out to be 4.9 µM in [15] and 70 µM in data set [1]. Moreover, the Ki is greater than 10 µM in [2]; 30 nM in data set [10]; 6.7 µM in [11]; 34 nM in data set [14]; 700 nM in [23]. Besides, the Emax worked out at 10% in data set [3] and 120% in data set [18]. Also, the inhibition in [19] was determined as 87%; in [20] it was 97%. The result in data set [4] and in data set [8] was inactive. This molecule also came in with an inhibition at 10 µM against hERG (KCNH2) of less than 5%. For the same molecule, the “%max” value with Rattus norvegicus [21] amounted to 74%. In addition, the “inhibition (INH)” value on Cytochrome P450 2D6 is reported as “Not Active”. In the data set on Rattus norvegicus [22], the outcome was Active.

Turning to `CCOc1cncc(/C=C/CCNC)c1`, the EC50 in data set [15] worked out at 0.17 µM; in data set [1], 20 µM. Further, the Emax came to 10% in [3] and 57% in data set [18]. The Ki in [10] was 12 nM; in [11] it was 71 µM; in data set [14], 6 nM; in [24], 7 µM.

Usually EC50 stands for the concentration needed to bring the measured effect to its halfway point. One may read the Ki as a dissociation constant, usually derived from enzyme kinetics or from competition with a known ligand. A high value points to weaker binding. The Emax is the size of the effect at its maximum, as opposed to the concentration needed. By inhibition is commonly meant the change of the read-out against control, counted positive when it falls. As usually defined, the IC50 is the point on the concentration scale where inhibition reaches its midpoint.
